Assay results: ChEMBL document CHEMBL1132893, “The design and synthesis of potent cyclic peptide VCAM-VLA-4 antagonists incorporating an achiral Asp-Pro mimetic” (Bioorg Med Chem Lett, 2000)

Assays:
Integrin alpha-4 [1] = target: T1, Integrin alpha-4 (Homo sapiens, UniProt P13612); assay: Inhibition of VLA-4 binding to recombinant human VCAM using Solid phase assay
T1 sequence (P13612 whole entry): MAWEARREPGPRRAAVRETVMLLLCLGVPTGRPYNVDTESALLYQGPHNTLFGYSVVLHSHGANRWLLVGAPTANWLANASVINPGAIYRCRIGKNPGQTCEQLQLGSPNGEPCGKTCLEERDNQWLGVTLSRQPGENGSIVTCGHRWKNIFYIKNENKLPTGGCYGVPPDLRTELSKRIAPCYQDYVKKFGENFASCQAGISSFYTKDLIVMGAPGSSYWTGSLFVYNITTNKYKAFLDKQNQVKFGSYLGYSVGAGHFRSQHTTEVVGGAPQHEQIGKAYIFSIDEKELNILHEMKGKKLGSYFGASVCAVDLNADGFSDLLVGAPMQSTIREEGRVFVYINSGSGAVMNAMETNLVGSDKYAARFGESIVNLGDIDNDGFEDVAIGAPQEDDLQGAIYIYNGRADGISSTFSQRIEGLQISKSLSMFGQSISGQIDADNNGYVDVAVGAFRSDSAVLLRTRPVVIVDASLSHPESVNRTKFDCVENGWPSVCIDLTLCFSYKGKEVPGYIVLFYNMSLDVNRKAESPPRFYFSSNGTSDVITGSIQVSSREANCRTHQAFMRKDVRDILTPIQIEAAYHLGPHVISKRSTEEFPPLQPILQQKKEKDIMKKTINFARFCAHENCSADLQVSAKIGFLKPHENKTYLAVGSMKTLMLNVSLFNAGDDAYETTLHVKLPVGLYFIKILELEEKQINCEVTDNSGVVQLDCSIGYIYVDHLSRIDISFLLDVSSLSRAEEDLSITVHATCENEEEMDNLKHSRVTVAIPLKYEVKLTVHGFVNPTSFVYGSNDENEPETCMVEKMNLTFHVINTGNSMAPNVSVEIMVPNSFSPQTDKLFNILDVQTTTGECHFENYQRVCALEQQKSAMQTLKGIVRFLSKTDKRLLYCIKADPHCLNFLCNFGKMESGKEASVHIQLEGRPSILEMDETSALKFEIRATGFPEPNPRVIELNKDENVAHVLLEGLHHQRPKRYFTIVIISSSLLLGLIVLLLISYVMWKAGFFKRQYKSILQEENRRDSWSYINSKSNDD

Integrin alpha-4 [2] = target: T1, Integrin alpha-4; assay: Inhibition of VLA-4 binding to recombinant human VCAM using Ramos cell assay; type: cell-based

SMILES | IC50 (Integrin alpha-4 [1]) [nM] | IC50 (Integrin alpha-4 [2]) [nM]
CC1(C)CCNC(=O)[C@@H](NC(=O)[C@@H](N)Cc2ccc(O)cc2)CSSC[C@@H](C(=O)O)NC1=O | 112 | 
CC(=O)N[C@@H](Cc1ccc(O)cc1)C(=O)N[C@H]1CSSC[C@@H](C(=O)O)NC(=O)C2(CCCC2)CCNC1=O | 0.7 | 12
CCC1(CC)CCNC(=O)[C@@H](NC(=O)[C@@H](N)Cc2ccc(O)cc2)CSSC[C@@H](C(=O)O)NC1=O | 3.9 | 
N[C@@H](Cc1ccc(O)cc1)C(=O)N[C@H]1CSSC[C@@H](C(=O)O)NC(=O)C2(CCCC2)CNC1=O | 5 | 
N[C@@H](Cc1ccc(O)cc1)C(=O)N[C@H]1CSSC[C@@H](C(=O)O)NC(=O)C2(CCCC2)CCCNC1=O | 19 | 480
N[C@@H](Cc1ccc(O)cc1)C(=O)N[C@H]1CSSC[C@@H](C(=O)O)NC(=O)C2(CCCC2)CCNC1=O |  | 24
